Source: patent US7622251B2, “Molecular indicators of breast cancer prognosis and prediction of treatment response” (Genomic Health, Inc., priority 2004, dated 2009)

How the values were obtained:
[1] = tested on: ESR1 positive, node-negative breast cancer; assay: Recurrence Score validation trial, patients treated with TAM alone in NSABP Study B-14: distant recurrence at 10 years; format: in vivo, human
Procedure: To test the clinical validity of this Recurrence Score test and algorithm, a blinded clinical trial with prospectively identified endpoints was carried out. This validation trial focused on patients treated with TAM alone in the randomized and registration arms of the National Surgical Adjuvant Breast and Bowel Project (NSABP) Study B-14 clinical trial population (Fisher B, Costantino J P, Redmond C K, et al: Endometrial cancer in TAM-treated breast cancer patients: Findings from the National Surgical Adjuvant Breast and Bowel Project (NSABP) B-14. J Natl Cancer Inst 86:527-537 (1994)). Genomic Health, Inc. and the NSABP carried out the 21 gene RT-PCR assay on 668 breast cancer tissue specimens derived from these patients and calculated a Recurrence Score for each patient.
Pre-specified cut-off points of Recurrence Score classified patients into one of three categories: low risk, intermediate risk, and high risk of distant disease recurrence. The proportion of the 668 patients categorized as low, intermediate, and high risk by the RT-PCR assay were 51%, 23%, and 27%, respectively. […] In a multivariate Cox model relating distant recurrence to Recurrence Score, age, and tumor size, Recurrence Score provides significant (p<0.001) predictive power that goes beyond age and tumor size. This study validated the Recurrence Score as a powerful predictor of distant recurrence in patients without involved nodes who have tumors that are ESR1 positive and treated with TAM (Paik et al. Breast Cancer Research and Treatment 82, Supplement 1: page S10, 2003 (Abstract 16).

[2] = tested on: ER-positive invasive breast cancer with negative axillary lymph nodes; assay: NSABP B-14 placebo and TAM arms combined: Cox interaction of treatment effect with gene expression, distant recurrence-free survival; format: in vivo, human; conditions: for H.R., treatment by gene expression interaction: placebo and TAM combined
Procedure: Endometrial cancer in TAM-treated breast cancer patients: Findings from the National Surgical Adjuvant Breast and Bowel Project (NSABP) B-14. J Natl Cancer Inst 86:527-537(1994). • 1.1 Fixed paraffin-embedded breast tumor tissue samples from up to 450 patients, who were treated at study entry with placebo alone in the B-14 study, were analyzed. For each evaluable patient, the expression of 16 cancer-related genes and 5 reference genes was quantitatively assessed by RT-PCR. […] Contralateral disease, other second primary cancers, and deaths prior to distant recurrence will be considered censoring events. […] Gene expression values were normalized relative to the mean of the reference genes. For each cancer-related gene, cycle threshold (CT) measurements were obtained by RT-PCR, and normalized relative to a set of five reference genes listed in Table 1. […] For the purpose of identifying treatment predictive genes in breast cancer, our primary objective was to explore the relation between gene expression and DRFS and OS in treated patients. For such analyses, data from both treated and untreated patient arms were utilized in order to discriminate treatment preditive genes from purely prognostic genes. For identifying treatment predictive genes for tamoxifen (TAM) response, both placebo and TAM-treated patients were included from NSABP Study B-14. In both studies, Cox proportional hazards models were utilized to examine the interaction between the treatment effect and gene expression. An interaction between treatment and gene expression exists if the treatment effect depends on the gene expression level; that is, if gene expression is a treatment predictive factor. Again, the likelihood ratio test was used to identify statistically significant predictive treatment genes by comparing the reduced model excluding the gene expression by treatment interaction versus the competing full model including the gene expression by treatment interaction.

`CC/C(=C(\c1ccccc1)c1ccc(OCCN(C)C)cc1)c1ccccc1` [TAM, tamoxifen] was tested, and the “Kaplan-Meier estimate (95% confidence interval) of rate of distant recurrence at 10 years” value ([1]; high risk group by Recurrence Score) was 30.5% (23.6%, 37.4%), the “Kaplan-Meier estimate (95% confidence interval) of rate of distant recurrence at 10 years” value ([1]; intermediate risk group by Recurrence Score) was 14.3% (8.3%, 20.3%) and the “Kaplan-Meier estimate (95% confidence interval) of rate of distant recurrence at 10 years” value ([1]; low risk group by Recurrence Score) was 6.8% (4.0%, 9.6%). The “decrease of H.R. for recurrence of TAM-treated patients” value ([2]; for every two fold increase in expression of ESR1, 95% confidence limits ~12% to ~37%) was “about 25%”, the “absolute benefit of TAM treatment” value ([2]; patients in the lowest quartile of ESR1 expression (FIG. 3)) was “little benefit” and the “absolute benefit of TAM treatment” value ([2]; patients in the lowest tertile of ESR1 expression (FIG. 2)) was “much less impact”. The “absolute benefit of TAM treatment” value ([2]; two-thirds of patients who express ESR1 at the highest levels (tertiles, FIG. 2)) was “substantial absolute benefit”, the “H.R., treatment by gene expression interaction” value (“H.R., treatment” for short) ([2]; variable IntBCL2_2) was 0.7697 and the “H.R., treatment” value ([2]; variable IntESR1 Group) was 0.7573. For the same compound, the “H.R., treatment” value ([2]; variable IntESR1_1) was 0.7438, the “H.R., treatment” value ([2]; variable IntSCUBE2_2) was 0.8058 and the “H.R., treatment” value ([2]; variable IntTFRC_3) was 1.944.
